Drawing on patent US20260102501A1, “ANTI-CANCER NUCLEAR HORMONE RECEPTOR-TARGETING COMPOUNDS” (Nuvation Bio Inc., priority 2022, published 2026), this text covers IC50 for eight compounds.

Substitutions are numbered along the chain they refer to. Where a name gives a salt, the structure may show the parent alone. Read-outs that look alike come from different tables or passages of the source.

One assay has as its system LNCap cells. As to the kind of experiment: Cell viability assay (CellTiterGlo). The class given is cell-based. Conditions: Homo sapiens, 144 h.
The subject of the next assay is 22Rv1 cells. As to the kind of experiment: Cell viability assay (CellTiterGlo). Conditions: Homo sapiens, 22Rv1, 144 h, read-out: 22RV1 (IC50, nM).
A further assay relates to IEC6 cells. As to the kind of experiment: Cell viability assay (CellTiterGlo). The settings on record: Rattus norvegicus, IEC-6, 144 h, read-out: IEC-6 (IC50, nM).
For assay [1], the target named is T1, AR (cytosol from LnCaP cells) (Homo sapiens, UniProt P10275, T878A).
T1 sequence (P10275 1-920 T878A): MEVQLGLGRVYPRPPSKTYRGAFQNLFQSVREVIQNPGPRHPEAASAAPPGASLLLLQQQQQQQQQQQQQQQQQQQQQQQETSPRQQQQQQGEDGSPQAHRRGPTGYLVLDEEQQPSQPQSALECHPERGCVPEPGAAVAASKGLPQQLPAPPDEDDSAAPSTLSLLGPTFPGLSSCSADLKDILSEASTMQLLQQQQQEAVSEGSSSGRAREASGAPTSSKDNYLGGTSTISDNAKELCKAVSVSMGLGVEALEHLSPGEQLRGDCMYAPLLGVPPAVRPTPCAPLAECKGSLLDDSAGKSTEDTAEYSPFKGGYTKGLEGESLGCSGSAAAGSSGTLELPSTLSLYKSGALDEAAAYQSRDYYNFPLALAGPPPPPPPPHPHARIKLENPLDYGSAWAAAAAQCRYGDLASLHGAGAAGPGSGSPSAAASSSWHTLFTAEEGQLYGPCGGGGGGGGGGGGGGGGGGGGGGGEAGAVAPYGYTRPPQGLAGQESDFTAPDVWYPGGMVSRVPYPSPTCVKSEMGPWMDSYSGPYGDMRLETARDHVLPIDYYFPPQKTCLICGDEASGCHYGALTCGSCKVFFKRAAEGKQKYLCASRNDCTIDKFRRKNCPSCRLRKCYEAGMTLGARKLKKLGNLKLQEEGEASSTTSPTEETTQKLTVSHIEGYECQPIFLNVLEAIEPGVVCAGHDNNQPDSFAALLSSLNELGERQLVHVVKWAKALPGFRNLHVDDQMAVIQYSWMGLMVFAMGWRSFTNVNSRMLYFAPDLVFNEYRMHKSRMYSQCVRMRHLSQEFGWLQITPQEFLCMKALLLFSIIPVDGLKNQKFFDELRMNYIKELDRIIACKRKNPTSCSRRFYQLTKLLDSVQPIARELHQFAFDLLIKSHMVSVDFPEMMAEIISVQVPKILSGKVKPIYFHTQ
As to the kind of experiment: AR binding assay (3H-R1881 displacement).
Method: The plate was then centrifuged at 3000 rpm for 30 minutes at 4° C.

Assay [2] deals with T2, full-length androgen receptor (HEK293 cells stably expressing) (Homo sapiens, UniProt P10275).
T2 sequence (P10275 1-920): T1 sequence (P10275 1-920 T878A) with A878T
As to the kind of experiment: AR antagonism assay (luciferase reporter).
Method: AR antagonism assay: To evaluate AR antagonist activity, test compound was added to the assay plate (top dose 10 μM, 3 fold serial dilution, 10 point dose response). HEK293 cells stably expressing the full-length androgen receptor were seeded at a density of 20000 cells/well in the assay plate. The assay plate was then incubated at room temperature for 10 minutes and at 37° C. 5% CO2 for 20 minutes. Testosterone was added to the assay plate at 1 nM final concentration and the assay plate incubated at 37° C., 5% CO2 for 20 h. […] Steady-glo was added to the assay plate and mixed at room temperature for 20 minutes on an orbital shaker, before reading out on the En Vision plate reader.

[3] abbreviates: 6 days incubation, CellTiterGlo, read-out: LNCap (IC50).

Method for 22Rv1 cells: (§1) Cell viability assay: LNCap, 22Rv1, MCF7, MDAMB361, T47D, and IEC6 cells were seeded at a density of 500-2000 cells/well in 96 well plates, and a ‘T0’ (timepoint 0) was included along with the assay plate. The plates were then incubated at 37° C., 5% CO2 in a cell culture incubator overnight. On the next day, the ‘T0’ plate was assayed using CellTiterGlo (Promega, Inc) according to the manufacturer's instructions. The appropriate compounds were diluted in DMSO and added to the assay plate (final DMSO concentration of 0.1-0.2%) on the next day. The assay plates were incubated for 6 days at 37° C., 5% CO2. After the incubation period, the plates were assayed using CellTiterGlo (Promega, Inc) according to the manufacturer's instructions and luminescence was read on the En Vision plate reader. […] GraphPadPrism was used to analyze the data and determine GI50/IC50 values.
Method for IEC6 cells: as §1

`CC[C@@]1(O)C(=O)OCc2c1cc1n(c2=O)Cc2cc3c(CN4CCN(C(=O)C5CCN(c6ccc(C(=O)N[C@H]7CC[C@H](Oc8ccc(C#N)c(Cl)c8)CC7)nn6)CC5)CC4)c(OC(=O)N(C(C)C)C(C)C)ccc3nc2-1` [Compound 1, (S)-10-((4-(1-(6-(((1r,4r)-4-(3-Chloro-4-cyanophenoxy)cyclohexyl)carbamoyl)pyridazin-3-yl)piperidine-4-carbonyl)piperazin-1-yl)methyl)-4-ethyl-4-hydroxy-3,14-dioxo-3,4,12,14-tetrahydro-1H-pyrano[3′,4′:6,7]indolizino[1,2-b]quinolin-9-yl Diisopropylcarbamate]: the IC50 was more than 1000 nM in the assay on LNCap cells (read-out: LNCap (IC50, nM)); more than 1000 nM in the assay with 22Rv1 cells; more than 1000 nM with IEC6 cells; 101 to 1000 nM in assay [1]; more than 1000 nM in assay [2].
As to `CC[C@@]1(O)C(=O)OCc2c1cc1n(c2=O)Cc2cc3c(CN(C)C)c(OC(=O)N4C[C@H](C)N(CC5CCN(c6ccc(C(=O)N[C@H]7CC[C@H](Oc8ccc(C#N)c(Cl)c8C)CC7)nn6)CC5)C[C@H]4C)ccc3nc2-1` [Compound 32, (S)-10-((Dimethylamino)methyl)-4-ethyl-4-hydroxy-3,14-dioxo-3,4,12,14-tetrahydro-1H-pyrano[3′,4′:6,7]indolizino[1,2-b]quinolin-9-yl (2R,5S)-4-((1-(6-(((1r,4r)-4-(3-Chloro-4-cyano-2-methylphenoxy)cyclohexyl)carbamoyl)pyridazin-3-yl)piperidin-4-yl)methyl)-2,5-dimethylpiperazine-1-carboxylate Formate], the half-maximal inhibitory concentration (IC50) in the assay on LNCap cells (read-out: LNCap (IC50, nM)) is 101 to 1000 nM; with 22Rv1 cells, 101 to 1000 nM; with IEC6 cells it was more than 1000 nM; in assay [1] it was 101 to 1000 nM; in assay [2] it was 101 to 1000 nM.
In the case of `CC[C@@]1(O)C(=O)OCc2c1cc1n(c2=O)Cc2cc3c(CN(C)C)c(OC(=O)N4C[C@H](C)N(CCCCCCN(C)C5CCN(c6ccc(C(=O)N[C@H]7CC[C@H](Oc8ccc(C#N)c(Cl)c8C)CC7)nn6)CC5)C[C@H]4C)ccc3nc2-1` [Compound 33, (S)-10-((Dimethylamino)methyl)-4-ethyl-4-hydroxy-3,14-dioxo-3,4,12,14-tetrahydro-1H-pyrano[3′,4′:6,7]indolizino[1,2-b]quinolin-9-yl (2R,5S)-4-(6-((1-(6-(((1r,4r)-4-(3-chloro-4-cyano-2-methylphenoxy)cyclohexyl)carbamoyl)pyridazin-3-yl)piperidin-4-yl)(methyl)amino)hexyl)-2,5-dimethylpiperazine-1-carboxylate Formate], the IC50 in the assay with LNCap cells (read-out: LNCap (IC50, nM)) was 10 to 100 nM; in the assay with 22Rv1 cells it was 101 to 1000 nM; with IEC6 cells, more than 1000 nM; in assay [1], less than 10 nM; in assay [2] it was more than 1000 nM.
On to `CC[C@@]1(O)C(=O)OCc2c1cc1n(c2=O)Cc2cc3c(CN4CCN(C(=O)CCCCCC5CCN(c6ccc(C(=O)N[C@H]7CC[C@H](N(C)c8ccc(C#N)c(Cl)c8)CC7)nn6)CC5)CC4)cccc3nc2-1` [Compound 43], for which the IC50 with LNCap cells (setting [3]) was 101 to 1000 nM; in the assay with 22Rv1 cells, 101 to 1000 nM; in the assay on IEC6 cells, more than 1000 nM; in assay [1], 10 to 100 nM; in assay [2], more than 1000 nM.
Regarding `CC[C@@]1(O)C(=O)OCc2c1cc1n(c2=O)Cc2cc3c(CN4CCN(CCCCCCC5CCN(c6ccc(C(=O)N[C@H]7CC[C@H](Oc8ccc(C#N)c(Cl)c8C)CC7)nn6)CC5)CC4)cccc3nc2-1` [Compound 44, N-((1r,4r)-4-(3-chloro-4-cyano-2-methylphenoxy)cyclohexyl)-6-(4-(6-(4-(((S)-4-ethyl-4-hydroxy-3,14-dioxo-3,4,12,14-tetrahydro-1H-pyrano[3′,4′:6,7]indolizino[1,2-b]quinolin-10-yl)methyl)piperazin-1-yl)hexyl)piperidin-1-yl)pyridazine-3-carboxamide], the IC50 in the assay on LNCap cells (setting [3]) was 101 to 1000 nM; in the assay with 22Rv1 cells, 101 to 1000 nM; in the assay with IEC6 cells, more than 1000 nM; in assay [1], 10 to 100 nM; in assay [2], more than 1000 nM.
Turning to `CC[C@@]1(O)C(=O)OCc2c1cc1n(c2=O)Cc2cc3c(CN(C)C)c(OC(=O)N4CCN(CCCCCCO[C@H]5CC[C@H]6[C@@H]7CCC8=CC(=O)CCC8=C7CC[C@]56C)CC4)ccc3nc2-1` [Compound 45, (S)-10-((dimethylamino)methyl)-4-ethyl-4-hydroxy-3,14-dioxo-3,4,12,14-tetrahydro-1H-pyrano[3′,4′:6,7]indolizino[1,2-b]quinolin-9-yl 4-(6-(((8S,13S,14S,17S)-13-methyl-3-oxo-2,3,6,7,8,11,12,13,14,15,16,17-dodecahydro-1H-cyclopenta[a]phenanthren-17-yl)oxy)hexyl)piperazine-1-carboxylate], the IC50 with LNCap cells (read-out: LNCap (IC50, nM)) fell in the range of 10 to 100 nM; with 22Rv1 cells, 10 to 100 nM; in the assay on IEC6 cells, 101 to 1000 nM; in assay [1], 10 to 100 nM; in assay [2] it was 101 to 1000 nM.
With `CC[C@@]1(O)C(=O)OCc2c1cc1n(c2=O)Cc2cc3c(CN(C)C)c(OC(=O)N4C[C@H](C)N(C(=O)C5CCN(c6ccc(C(=O)N[C@H]7CC[C@H](N(C)c8ccc(C#N)c(Cl)c8)CC7)nn6)CC5)C[C@H]4C)ccc3nc2-1` [Compound No. 17, (S)-10-((Dimethylamino)methyl)-4-ethyl-4-hydroxy-3,14-dioxo-3,4,12,14-tetrahydro-1H-pyrano[3′,4′:6,7]indolizino[1,2-b]quinolin-9-yl (2R,5S)-4-(1-(6-(((1r,4r)-4-((3-chloro-4-cyanophenyl)(methyl)-amino)cyclohexyl)carbamoyl)pyridazin-3-yl)piperidine-4-carbonyl)-2,5-dimethylpiperazine-1-carboxylate], the IC50 is 101 to 1000 nM with LNCap cells (read-out: LNCap (IC50, nM)); 101 to 1000 nM in the assay on 22Rv1 cells; more than 1000 nM with IEC6 cells; 10 to 100 nM in assay [1].
With `CC[C@@]1(O)C(=O)OCc2c1cc1n(c2=O)Cc2cc3c(CN(C)C)c(OC(=O)N4C[C@H](C)N(CC5CCN(c6ccc(C(=O)N[C@H]7CC[C@H](N(C)c8ccc(C#N)c(Cl)c8)CC7)nn6)CC5)C[C@H]4C)ccc3nc2-1` [Compound No. 20, (S)-10-((Dimethylamino)methyl)-4-ethyl-4-hydroxy-3,14-dioxo-3,4,12,14-tetrahydro-1H-pyrano[3′,4′:6,7]indolizino[1,2-b]quinolin-9-yl (2R,5S)-4-((1-(6-(((1r,4r)-4-((3-chloro-4-cyanophenyl)-(methyl)amino)cyclohexyl)carbamoyl)pyridazin-3-yl)piperidin-4-yl)methyl)-2,5-dimethylpiperazine-1-carboxylate], the IC50 was 101 to 1000 nM in the assay on LNCap cells (read-out: LNCap (IC50, nM)); 101 to 1000 nM in the assay with 22Rv1 cells; more than 1000 nM in the assay with IEC6 cells; 10 to 100 nM in assay [1]; more than 1000 nM in assay [2].
